Test results published in the NIST ThermoML archive (doi:10.1021/je100598x).

Experiment: cn = amount concentration of the nth substance listed, in mol/dm3
Settings: 101 kPa, Liquid, Direct current cell with electrodes

CCCCCCCCCCCC[N+](CC)(CC)CC.[Br-] [dodecyltriethylammonium bromide] + O
electrical conductivity [S/m]
Settings	288.15 K	293.15 K	298.15 K	303.15 K	308.15 K	313.15 K	318.15 K
c1 = 0.001316	0.0105	0.0119	0.0132	0.0146	0.01605	0.0176	0.019
c1 = 0.002597	0.02	0.0226	0.0252	0.028	0.0306	0.0335	0.0363
c1 = 0.003846	0.0289	0.0327	0.0365	0.0406	0.0443	0.0486	0.0526
c1 = 0.005063	0.0374	0.0423	0.0473	0.0526	0.0573	0.0631	0.0682
c1 = 0.00625	0.0456	0.0516	0.0576	0.0641	0.0698	0.0768	0.0831
c1 = 0.007407	0.053	0.0604	0.0676	0.0752	0.0819	0.09	0.0976
c1 = 0.008536	0.0609	0.0689	0.0771	0.0859	0.0934	0.1028	0.1114
c1 = 0.009638	0.0681	0.077	0.0862	0.0962	0.1047	0.115	0.1247
c1 = 0.01071	0.0751	0.085	0.095	0.106	0.116	0.127	0.137
c1 = 0.01177	0.0818	0.0926	0.1035	0.115	0.126	0.139	0.15
c1 = 0.01279	0.0884	0.1	0.1116	0.1245	0.136	0.149	0.1607
c1 = 0.01379	0.0946	0.107	0.119	0.1325	0.1445	0.159	0.173
c1 = 0.01477	0.0997	0.1119	0.1243	0.138	0.1513	0.167	0.1822
c1 = 0.01573	0.1033	0.115	0.128	0.1426	0.156	0.1726	0.189
c1 = 0.01667	0.106	0.118	0.1315	0.146	0.1607	0.178	0.196
c1 = 0.01758	0.108	0.121	0.1345	0.15	0.165	0.1821	0.2
c1 = 0.01848	0.1105	0.1235	0.137	0.1528	0.169	0.186	0.206
c1 = 0.01936	0.1125	0.126	0.1401	0.156	0.1721	0.1911	0.211
c1 = 0.02021	0.1144	0.128	0.1427	0.159	0.175	0.195	0.215
c1 = 0.02105	0.116	0.1303	0.145	0.1616	0.179	0.199	0.22
c1 = 0.02188	0.118	0.1324	0.148	0.1645	0.1821	0.202	0.224
c1 = 0.02268	0.12	0.1344	0.15	0.167	0.185	0.206	0.228
c1 = 0.02347	0.1215	0.136	0.1524	0.17	0.189	0.209	0.232
c1 = 0.02424	0.1231	0.138	0.1546	0.1723	0.1916	0.213	0.236
c1 = 0.025	0.125	0.1403	0.157	0.175	0.1946	0.216	0.24
